We go through 3 substances from patent publication US20200131495A1, “PROTEINS DERIVED FROM CLPB AND USES THEREOF” (priority 2017, published 2020).

The target in assay [1] is MCSR (Mus musculus, UniProt P41149). The settings on record: Ericson et al., 2015; cited from earlier work.
Assay [2] concerns the target MC3R (Mus musculus, UniProt P33033). The settings on record: Ericson et al., 2015; cited from earlier work.
Assay [3] deals with MC4R (Mus musculus, UniProt P56450). Particulars: Ericson et al., 2015; cited from earlier work.
Assay [4] addresses MC1R (Mus musculus, UniProt Q01727). Particulars: Ericson et al., 2015; cited from earlier work.
Assay [5] has as its system intestinal tissues from rats (colons and ileums). The assay can be described thus: PYY secretion experiment in rat colons and ileums. Type of assay: cell-based. Particulars: 10 nM, 20 min, control PBS, FIG. 6. The protocol: Colons and ileums were removed from male rats (Janvier Labs, Genest-Saint-Isle, France). They were washed with ice-cold PBS, then with ice-cold L-15 (Leibowitz) medium (PAA, Yeovil, UK). Then they were digested with 0.4 mg/mL collagenase XI (Sigma, Poole, UK) in High-Glucose DMEM (+1% L-Glutamine+1% Penicillin+1% Streptomycin+1% and non-essential amino acids) at 37° C. during 10 min. Cells suspensions were centrifuged (10 min at 400 g) and the pellets were resuspended in High-Glucose DMEM (the same that previously but with 10% Fetal Bovine Serum (FBS). Cell suspensions were filtered through a nylon mesh (pore size 100 Jpm) (Merck Millipore, Mass., USA) and plated onto 24 well, 1% Matrigel-coated plates (Corning, N.Y., US). The plates were incubated overnight at 37° C. in an atmosphere of […] and 5% CO2.
After 24 hours of culture, cells were incubated for 20 min in a water bath with secretion buffer (4 mM KCl, 138 mM NaCl, 1.2 mM NaHCO3, 1.2 mM NaH2PO4, 2.6 mM CaCl2), 1.2 mM MgCl2 and 10 mM HEPES) adjusted at pH 7.4) and full-length ClpB or the ˜25 kDa fragment at a concentration of 10 nM. […]
After incubation, the cells were treated with lysis buffer (50 mmol/L Tris-HCl, 150 mmol/L NaCl, 1% IGEPAL CA-630, 0.5% deoxycholic acid+cocktail of protease inhibitor tablets complete without EDTA) to extract intracellular peptides. […] Lysates were stored at −80° C. if not analyzed immediately. […]

A short description of assay [6]: Food intake of mice in BioDAQ cages after i.p. or oral administration. The assay is classed as in vivo. The settings on record: for food intake in mice, oral administration: 60 pmol in 200 μL, FIG. 8. The procedure: Male C57/B16 mice were placed in the BioDAQ mouse cages (Research Diets, Inc., New Brunswick, N.J.) alone to measure the food intake. Each mouse was administered either physiological serum (n=6), full-length ClpB, or fragment of ˜25 kDa.
Two modes of administration were tested: intraperitoneal (i.p.) injection at a concentration of 2 pmol in a volume of 200 μL (n=8), and oral administration at a concentration of 60 pmol in a volume of 200 μL (n=10).

In assay [7] the test system is anti-α-MSH antibody. As to the kind of experiment: Western blot revealed with anti-α-MSH antibody. The assay is classed as binding, rabbit. Particulars: FIG. 3 (trypsinised ClpB); FIG. 4 (colic mucosa, hypothalamus, plasma of mice and rats). The procedure: First the fragmentation was performed on different conditions: ClpB diluted at 1/10 (from the stock at 5 mg/mL) and ClpB 1/10 with 0.0025% trypsin. Those different conditions were placed during 20 minutes at 37° C. After incubation, the fragmentation was immediately stopped by placing tubes on ice and western blot was performed.
After fragmentation, Leamli solution without J-mercaptoethanol was added into tubes to perform western on 20% acrylamide SDS gel in Tris-Glycine buffer (BioRad, Hercules, USA) and transferred to a nitrocellulose membrane (GE Healthcare, Orsay, France). Then, the membrane was blocked for at least 1 h at room temperature with 5% (w/v) non-fat dry milk in TBS (10 mmol/L Tris, pH 8; 150 mmol/L NaCl) plus 0.05% (w/v) Tween 20. After blocking, the […] The membrane was incubated overnight at 4° C. with rabbit polyclonal anti-α-MSH antibodies (1:1000, Phoenix Pharmaceuticals). After three washes in a blocking solution of 5% (w/v) non-fat dry milk in TBS/0.05% Tween 20, membranes were incubated for 1 h with peroxidase-conjugated anti rabbit IgG (1:1000, SantaCruz Biotechnology). […]
Tissues were incubated with extracted buffer (PBS+protease inhibitor (1%)). The volume added depends of sample quantity. […] The supernatant was stored at −80° C. if not analysed immediately. […]
(In general: In western blotting, separated proteins are transferred to a membrane and probed.)

Sequence of MC1R (Q01727 whole entry): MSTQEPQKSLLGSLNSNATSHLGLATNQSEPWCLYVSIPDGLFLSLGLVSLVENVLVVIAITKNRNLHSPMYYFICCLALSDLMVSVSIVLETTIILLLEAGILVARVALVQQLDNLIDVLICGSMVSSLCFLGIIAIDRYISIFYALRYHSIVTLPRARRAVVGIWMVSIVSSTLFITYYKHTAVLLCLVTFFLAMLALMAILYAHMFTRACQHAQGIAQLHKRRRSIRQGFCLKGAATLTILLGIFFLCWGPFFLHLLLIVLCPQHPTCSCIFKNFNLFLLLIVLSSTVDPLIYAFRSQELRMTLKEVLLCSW
Sequence of MCSR (P41149 whole entry): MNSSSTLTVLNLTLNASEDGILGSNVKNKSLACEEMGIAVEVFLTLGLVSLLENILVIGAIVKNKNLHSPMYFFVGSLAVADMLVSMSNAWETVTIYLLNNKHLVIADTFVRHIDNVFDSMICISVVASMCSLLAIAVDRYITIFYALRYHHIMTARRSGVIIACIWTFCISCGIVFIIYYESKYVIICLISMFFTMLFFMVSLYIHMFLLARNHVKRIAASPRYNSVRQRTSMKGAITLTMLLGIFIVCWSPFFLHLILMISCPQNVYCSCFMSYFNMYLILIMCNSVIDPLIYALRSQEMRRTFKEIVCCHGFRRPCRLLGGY
Sequence of MC3R (P33033 whole entry): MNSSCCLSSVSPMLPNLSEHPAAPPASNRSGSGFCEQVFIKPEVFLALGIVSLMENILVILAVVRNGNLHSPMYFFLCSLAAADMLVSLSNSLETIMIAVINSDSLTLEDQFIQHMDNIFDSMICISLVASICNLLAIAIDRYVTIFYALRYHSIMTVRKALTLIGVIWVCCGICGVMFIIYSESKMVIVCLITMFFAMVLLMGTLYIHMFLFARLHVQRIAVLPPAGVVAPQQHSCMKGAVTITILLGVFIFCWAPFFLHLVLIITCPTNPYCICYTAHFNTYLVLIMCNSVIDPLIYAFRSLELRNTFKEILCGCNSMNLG
Sequence of MC4R (P56450 whole entry): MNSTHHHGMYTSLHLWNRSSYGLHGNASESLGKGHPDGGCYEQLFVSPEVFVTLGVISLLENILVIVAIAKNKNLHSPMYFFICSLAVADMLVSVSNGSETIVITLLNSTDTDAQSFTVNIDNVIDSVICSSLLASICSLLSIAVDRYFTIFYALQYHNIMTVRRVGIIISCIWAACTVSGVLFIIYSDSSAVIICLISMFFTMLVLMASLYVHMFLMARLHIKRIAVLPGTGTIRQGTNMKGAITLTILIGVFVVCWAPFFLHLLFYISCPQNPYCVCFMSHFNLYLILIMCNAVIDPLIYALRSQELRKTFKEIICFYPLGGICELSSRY

As to “AEIAEVLARWTGIPV (ClpB fragment) [modified short ClpB fragment studied by Ericson et al]”, in assay [1], the “activity on MCSR” value is on record as “partial activities”. For the same substance, the “activity on MC3R” value in assay [2] was “partial activities”. Besides, the “activity on MC4R” value in assay [3] is “not on MC4R”. Further, the MC1R agonist activity entry in assay [4] is recorded as “full micromolar MC1R agonist”.
As for “fragment of ˜25 kDa: sequence of ClpB from amino acid 537 to amino acid 756 (SEQ ID NO: 22), produced by trypsinisation of ClpB”, in assay [5], the “PYY secretion compared to the control” value was “increase PYY secretion”. Further, in assay [6] (i.p. 2 pmol and oral 60 pmol in 200 μL, FIGS. 7 and 8), the “duration of the decrease of food intake” value was “at least 90 min”. The “food intake in mice” value in assay [6] (i.p. 2 pmol and oral 60 pmol in 200 μL, FIGS. 7 and 8, compared with full-length ClpB protein) is listed as “decreases food intake in mice at least as much as the full-length ClpB protein”. The “food intake in mice, oral administration” value in assay [6] was “decreases food intake”. In assay [7], the “recognition by anti-α-MSH antibodies (Western blot)” value is recorded as “revealed with polyclonal anti-α-MSH”.
For the substance “full-length ClpB: chaperone protein ClpB (caseinolytic protease B), ˜96 kDa, 857 amino acids, from E. Coli K12”, in assay [5], the “PYY secretion compared to the control” value is “increase PYY secretion”. The “food intake in mice, oral administration” value in assay [6] is listed as “no such effect”.
